Earlier results, collected in patent US20060099230A1, “Novel formulations of eprosartan with enhanced bioavailability” (priority 2004, published 2006).
Counter-ions that a name gives are not always drawn.

Conditions: for bioavailability (mean absolute / oral): conventional formulation, dose not stated

Structure (SMILES): CCCCc1ncc(/C=C(\Cc2cccs2)C(=O)O)n1Cc1ccc(C(=O)O)cc1 [eprosartan mesylate]
- bioavailability (mean absolute / oral): 13%

Structure (SMILES): CCCCc1ncc(/C=C(\Cc2cccs2)C(=O)O)n1Cc1ccc(C(=O)O)cc1 [eprosartan, (E)-α-[2-n-butyl-1-[(4-carboxyphenyl)methyl]-1H-imidazol-5-yl]methylene-2-thiophenepropionic acid]
- effect of food on absorption (administered with food): delays absorption
- accumulation (chronic use): does not significantly accumulate
- absolute bioavailability (following a 300 mg oral dose): approximately 13%
- bioavailability (mean absolute / oral): 13%
- dose proportionality of plasma concentrations (over the 100 mg to 800 mg dose range): slightly less than dose-proportional
